Results: US12215106B2, “Pharmaceutical compounds and therapeutic methods” (RUTGERS, THE STATE UNIVERSITY OF NEW JERSEY, priority 2018, dated 2025)
Structures can show the parent of a compound that is named as a salt. Where two headings read alike, the source gives them in different places.

Test: Plasma pharmacokinetics and brain distribution after single IV, IP and oral administration
Assay type: in vivo
Protocol: (§1) The objective of this study was to investigate the plasma pharmacokinetics and brain distribution of Compound (14 in male C57BL/6 mice following a single intravenous, intraperitoneal and oral administration. A group of sixty-three male mice were divided into three groups (Group 1: 2 mg/kg/IV; Group 2: 10 mg/kg/IP and Group 3: 10 mg/kg/PO) with each group comprising of twenty-one mice.
Animals in Group 1 were administered intravenously with Compound 15 solution formulation in 5% NMP, 5% Solutol HS-15, 30% PEG-400 and 60% Captisol (20% w/v) at 2 mg/kg dose. […] Considering mortality intravenous dose was reduced to 2 mg/kg.
Animals in Group 2 and 3 were administered with Compound 15 solution formulation in 5% NMP, 5% Solutol HS-15, 30% PEG-400 and 60% Captisol (20% w/v) at a dose of 10 mg/kg by intraperitoneal and oral route respectively.
(§2) Blood samples (approximately 60 μL) were collected under light isoflurane anesthesia from retro orbital plexus from a set of three mice at 0.08, 0.35, 1, 3, 6, 12 and 24 hr. Plasma samples were separated by centrifugation of whole blood and stored below −70±10° C. until bioanalysis. Immediately after collection of blood, brain samples were collected from set of three mice at each time point. Brain samples were homogenized using ice-cold phosphate buffer saline (pH-7.4) in a ratio of 2 (buffer):1(brain); and homogenates were stored below −70±10° C. until analysis. Total homogenate volume was three times the brain weight. All samples were processed for analysis by protein precipitation using acetonitrile and analyzed with fit-for-purpose LC/MS/MS method (LLOQ2.00 ng/mL for plasma and 3.00 ng/g for brain). Pharmacokinetic parameters were calculated using the non-compartmental analysis tool of Phoenix WinNonlin® (Version 7.0). Pharmacokinetic parameters of Compound 15 are summarized below.
as §1, with “Compound 16” for “Compound (14”, “1: 10” for “1: 2”
Animals in Group 1 were administered intravenously with Compound 16 solution formulation in 5% NMP, 5% Solutol HS-15 and 90% normal saline at 10 mg/kg dose.
Animals in Group 2 and 3 were administered with Compound 16 solution formulation in 5% NMP, 5% Solutol HS-15 and 90% normal saline at a dose of 10 mg/kg by intraperitoneal and oral route respectively.
as §2, with “(LLOQ—1.00” for “(LLOQ2.00”, “16” for “15”
as §1, with “17” for “(14”, “mice. […]” for “mice.”

[1] = male, C57BL/6, mouse, in vivo, iv, 2 mg/kg, Brain concentration, individual animal
[2] = male, C57BL/6, mouse, in vivo, iv, 2 mg/kg, Mean brain conc.
[3] = male, C57BL/6, mouse, in vivo, iv, 2 mg/kg, Mean plasma conc.
[4] = male, C57BL/6, mouse, in vivo, iv, 2 mg/kg, Plasma concentration, individual animal
[5] = male, C57BL/6, mouse, in vivo, po, 10 mg/kg
[6] = male, C57BL/6, mouse, in vivo, po, 10 mg/kg, 24 h
[7] = male, C57BL/6, mouse, in vivo, po, 10 mg/kg, Brain concentration, individual animal
[8] = male, C57BL/6, mouse, in vivo, po, 10 mg/kg, Mean brain conc.
[9] = male, C57BL/6, mouse, in vivo, po, 10 mg/kg, Mean plasma conc.
[10] = male, C57BL/6, mouse, in vivo, po, 10 mg/kg, Plasma concentration, individual animal

## [2H]C([2H])([2H])Oc1ccc(Nc2nc(-c3c(C)nc4ccccn34)cs2)cc1 [Compound 15, N-(4-(methoxy-d3)phenyl)-4-(2-methylimidazo[1,2-c]pyridin-3-yl)thiazol-2-amine hydrochloride]
[1]
  concentration at 1 h: 67.2 ng/g
  concentration at 6 h: 0 ng/g
  concentration at 12 h: 0 ng/g
  concentration at 24 h: 0 ng/g
[2]
  concentration at 0.08 h: 366 ng/g
  concentration at 0.35 h: 231 ng/g
  concentration at 1 h: 80 ng/g
  concentration at 3 h: 27.2 ng/g
  concentration at 6 h: 0 ng/g
  concentration at 12 h: 0 ng/g
  concentration at 24 h: 0 ng/g
[3]
  concentration at 0.08 h: 313 ng/mL
  concentration at 0.35 h: 149 ng/mL
  concentration at 1 h: 61.9 ng/mL
  concentration at 3 h: 16.6 ng/mL
  concentration at 6 h: 0 ng/mL
  concentration at 12 h: 0 ng/mL
  concentration at 24 h: 0 ng/mL
[4]
  concentration at 0.08 h: 298 ng/mL
  concentration at 0.35 h: 139 ng/mL
  concentration at 6 h: 0 ng/mL
  concentration at 12 h: 0 ng/mL
  concentration at 24 h: 0 ng/mL
[5]
  Brain concentrations quantifiable up to: up to 12 hr
  Plasma concentrations quantifiable up to: up to 12 hr
[6]
  Brain concentration, individual animal: 0.00 ng/g
  Plasma concentration, individual animal: 0.00 ng/mL
[7]
  concentration at 0.08 h: 8.31 ng/g
  concentration at 1 h: 190 ng/g
  concentration at 24 h: 0 ng/g
[8]
  concentration at 0.08 h: 7.99 ng/g
  concentration at 0.35 h: 108 ng/g
  concentration at 1 h: 253 ng/g
  concentration at 3 h: 66 ng/g
  concentration at 6 h: 6.63 ng/g
  concentration at 12 h: 3.63 ng/g
  concentration at 24 h: 0 ng/g
[9]
  concentration at 0.08 h: 78.2 ng/mL
  concentration at 0.35 h: 261 ng/mL
  concentration at 1 h: 245 ng/mL
  concentration at 3 h: 93.7 ng/mL
  concentration at 6 h: 11.1 ng/mL
  concentration at 12 h: 5.82 ng/mL
  concentration at 24 h: 0 ng/mL
[10]
  concentration at 0.35 h: 251 ng/mL
  concentration at 12 h: 8.42 ng/mL
  concentration at 24 h: 0 ng/mL
male, C57BL/6, mouse, in vivo, IV 2 mg/kg, 0.08 hr, read-out: Brain-to-plasma ratio
  Kp at 0.08 h: 1.17
male, C57BL/6, mouse, in vivo, IV 2 mg/kg, 0.35 hr, read-out: Brain-to-plasma ratio
  Kp at 0.35 h: 1.55
male, C57BL/6, mouse, in vivo, IV 2 mg/kg, 1 hr, read-out: Brain-to-plasma ratio
  Kp at 1 h: 1.29
male, C57BL/6, mouse, in vivo, IV 2 mg/kg, 3 hr, read-out: Brain-to-plasma ratio
  Kp at 3 h: 1.64
male, C57BL/6, mouse, plasma, po, 10 mg/kg, PO 10 mg/kg, AUClast considered, read-out: Oral bioavailability, % F
  bioavailability: 64%
male, C57BL/6, mouse, plasma, po, 10 mg/kg, summary data, read-out: Oral bioavailability
  bioavailability: 64%
male, C57BL/6, mouse, plasma, IP 10 mg/kg
  Tmax: 21 min
male, C57BL/6, mouse, plasma, IV 2 mg/kg, read-out: CL, plasma clearance
  clearance: 130 mL/min/kg
male, C57BL/6, mouse, plasma, IV 2 mg/kg, read-out: T1/2, terminal elimination half-life (converted)
  half-life: 52.8 min
male, C57BL/6, mouse, plasma, PO 10 mg/kg
  Tmax: 21 min
mouse, in vivo, iv, 10 mg/kg
  mortality immediately after dose administration: mortality was observed in four animals
